Activity calls are given as the source filed them. The calls are words filed in the database; no cut-off is given here.
Legend:
Abutilon theophrasti [1] = test: Herbicidal activity against Abutilon theophrasti (velvetleaf) assessed as visual injury at 10 ug/seedling applied to leaf after 1 week relative to control; type: functional
Helianthus annuus [2] = test: Herbicidal activity against Helianthus annuus (sunflower) assessed as visual injury at 10 ug/seedling applied to cotyledon after 1 week relative to control; type: functional
Abutilon theophrasti [3] = test: Herbicidal activity against Abutilon theophrasti (velvetleaf) assessed as visual injury at 1 ug/seedling applied to leaf after 1 week relative to control; type: functional
Helianthus annuus [4] = test: Herbicidal activity against Helianthus annuus (sunflower) assessed as visual injury at 100 ug/seedling applied to cotyledon after 1 week relative to control; type: functional
[5] = test system: Agrostis stolonifera var. palustris; test: Herbicidal activity against Agrostis stolonifera var. palustris assessed as root tip puffing after 9 days by agarose-based test; type: functional, organism-based
Abutilon theophrasti [6] = test: Herbicidal activity against Abutilon theophrasti (velvetleaf) assessed as visual injury at 100 ug/seedling applied to leaf after 1 week relative to control; type: functional
[7] = test system: Agrostis stolonifera var. palustris; test: Herbicidal activity against Agrostis stolonifera var. palustris assessed as stunting after 9 days by agarose-based test; type: functional, organism-based
Arabidopsis thaliana [8] = test: Growth inhibition of Arabidopsis thaliana var. Columbia after 9 days by agarose-based test; type: functional
Helianthus annuus [9] = test: Herbicidal activity against Helianthus annuus (sunflower) assessed as visual injury at 1 ug/seedling applied to cotyledon after 1 week relative to control; type: functional
Abutilon theophrasti [10] = test: Herbicidal activity against Abutilon theophrasti (velvetleaf) assessed as visual injury at 1 ug/seedling applied to meristem after 1 week relative to control; type: functional
Arabidopsis thaliana [11] = test: Growth inhibition of Arabidopsis thaliana var. Columbia assessed as root tip puffing after 9 days by agarose-based test; type: functional, organism-based
Helianthus annuus [12] = test: Herbicidal activity against Helianthus annuus (sunflower) assessed as visual injury at 100 ug/seedling applied to meristem after 1 week relative to control; type: functional
Helianthus annuus [13] = test: Herbicidal activity against Helianthus annuus (sunflower) assessed as visual injury at 10 ug/seedling applied to meristem after 1 week relative to control; type: functional
Helianthus annuus [14] = test: Herbicidal activity against Helianthus annuus (sunflower) assessed as visual injury at 1 ug/seedling applied to meristem after 1 week relative to control; type: functional
Abutilon theophrasti [15] = test: Herbicidal activity against Abutilon theophrasti (velvetleaf) assessed as visual injury at 100 ug/seedling applied to meristem after 1 week relative to control; type: functional
Arabidopsis thaliana [16] = test: Growth inhibition of Arabidopsis thaliana var. Columbia assessed as stunting after 9 days by agarose-based test; type: functional, organism-based
Abutilon theophrasti [17] = test: Herbicidal activity against Abutilon theophrasti (velvetleaf) assessed as visual injury at 10 ug/seedling applied to meristem after 1 week relative to control; type: functional
[18] = test system: Agrostis stolonifera var. palustris; test: Herbicidal activity against Agrostis stolonifera var. palustris after 9 days by agarose-based test; type: functional
Helianthus annuus [19] = test: Post-emergence growth inhibition of Helianthus annuus (sunflower) assessed as visual injury at 1 kg/ha after 9 days relative to control; type: functional; design: scale not given: the % may be the effect or the level left
Echinochloa crus-galli [20] = test: Post-emergence herbicidal activity against Echinochloa crus-galli (barnyard grass) assessed as visual injury at 2 kg/ha after 9 days relative to control; type: functional
Helianthus annuus [21] = test: Post-emergence growth inhibition of Helianthus annuus (sunflower) assessed as visual injury at 2 kg/ha after 9 days relative to control; type: functional; design: scale not given: the % may be the effect or the level left
Avena fatua [22] = test: Post-emergence growth inhibition of Avena fatua assessed as visual injury at 2 kg/ha after 9 days relative to control; type: functional; design: scale not given: the % may be the effect or the level left
Avena fatua [23] = test: Post-emergence growth inhibition of Avena fatua assessed as visual injury at 0.25 kg/ha after 9 days relative to control; type: functional; design: scale not given: the % may be the effect or the level left
Echinochloa crus-galli [24] = test: Post-emergence herbicidal activity against Echinochloa crus-galli (barnyard grass) assessed as visual injury at 0.5 kg/ha after 9 days relative to control; type: functional
Avena fatua [25] = test: Post-emergence growth inhibition of Avena fatua assessed as visual injury at 1 kg/ha after 9 days relative to control; type: functional; design: scale not given: the % may be the effect or the level left
Ipomoea hederacea [26] = test: Post-emergence herbicidal activity against Ipomoea hederacea (ivy-leaved morning glory) assessed as visual injury at 2 kg/ha after 9 days relative to control; type: functional
Ipomoea hederacea [27] = test: Post-emergence herbicidal activity against Ipomoea hederacea (ivy-leaved morning glory) assessed as visual injury at 1 kg/ha after 9 days relative to control; type: functional
Ipomoea hederacea [28] = test: Post-emergence herbicidal activity against Ipomoea hederacea (ivy-leaved morning glory) assessed as visual injury at 0.25 kg/ha after 9 days relative to control; type: functional
Helianthus annuus [29] = test: Post-emergence growth inhibition of Helianthus annuus (sunflower) assessed as visual injury at 0.5 kg/ha after 9 days relative to control; type: functional; design: scale not given: the % may be the effect or the level left
Avena fatua [30] = test: Post-emergence growth inhibition of Avena fatua assessed as visual injury at 0.5 kg/ha after 9 days relative to control; type: functional; design: scale not given: the % may be the effect or the level left
Helianthus annuus [31] = test: Post-emergence growth inhibition of Helianthus annuus (sunflower) assessed as visual injury at 0.25 kg/ha after 9 days relative to control; type: functional; design: scale not given: the % may be the effect or the level left
Echinochloa crus-galli [32] = test: Post-emergence herbicidal activity against Echinochloa crus-galli (barnyard grass) assessed as visual injury at 1 kg/ha after 9 days relative to control; type: functional
Echinochloa crus-galli [33] = test: Post-emergence herbicidal activity against Echinochloa crus-galli (barnyard grass) assessed as visual injury at 0.25 kg/ha after 9 days relative to control; type: functional
Ipomoea hederacea [34] = test: Post-emergence herbicidal activity against Ipomoea hederacea (ivy-leaved morning glory) assessed as visual injury at 0.5 kg/ha after 9 days relative to control; type: functional
Echinochloa crus-galli [35] = test: Post-emergence herbicidal activity against Echinochloa crus-galli (barnyard grass) assessed as visual injury at 0.125 kg/ha after 9 days relative to control; type: functional
Ipomoea hederacea [36] = test: Post-emergence herbicidal activity against Ipomoea hederacea (ivy-leaved morning glory) after 9 days; type: functional
Avena fatua [37] = test: Post-emergence growth inhibition of Avena fatua assessed as visual injury at 0.125 kg/ha after 9 days relative to control; type: functional; design: scale not given: the % may be the effect or the level left
Ipomoea hederacea [38] = test: Post-emergence herbicidal activity against Ipomoea hederacea (ivy-leaved morning glory) assessed as visual injury at 0.125 kg/ha after 9 days relative to control; type: functional
Helianthus annuus [39] = test: Post-emergence growth inhibition of Helianthus annuus (sunflower) assessed as visual injury at 0.125 kg/ha after 9 days relative to control; type: functional; design: scale not given: the % may be the effect or the level left

SMILES: O=C1N[C@@H](Cc2c[nH]c3cccc([N+](=O)[O-])c23)C(=O)N[C@H]1Cc1ccccc1 [DES-N-METHYLTHAXTOMIN C]
- Activity (Abutilon theophrasti [1]): 0%
- Activity (Helianthus annuus [2]): 0%
- Activity (Abutilon theophrasti [3]): 0%
- Activity (Helianthus annuus [4]): 0%
- Activity [5]: Active
- Activity (Abutilon theophrasti [6]): 0%
- Activity [7]: Active
- I50 (Arabidopsis thaliana [8]): 400 ppb
- Activity (Helianthus annuus [9]): 0%
- Activity (Abutilon theophrasti [10]): 0%
- growth inhibition (GI) (Arabidopsis thaliana [11]): Active
- Activity (Helianthus annuus [12]): 50%
- Activity (Helianthus annuus [13]): 0%
- Activity (Helianthus annuus [14]): 0%
- Activity (Abutilon theophrasti [15]): 10%
- growth inhibition (GI) (Arabidopsis thaliana [16]): Active
- Activity (Abutilon theophrasti [17]): 0%
- I50 [18]: 600 ppb

SMILES: CN1C(=O)[C@](O)(Cc2ccc(O)c(O)c2)N(C)C(=O)[C@@H]1Cc1c[nH]c2cccc([N+](=O)[O-])c12 [HYDROXYTHAXTOMIN A]
- Activity [5]: Active
- Activity [7]: Active
- I50 (Arabidopsis thaliana [8]): 10 ppb
- growth inhibition (GI) (Arabidopsis thaliana [11]): Active
- growth inhibition (GI) (Arabidopsis thaliana [16]): Active
- I50 [18]: 40 ppb

SMILES: CN1C(=O)[C@](O)(Cc2ccccc2)NC(=O)[C@@H]1Cc1c[nH]c2cccc([N+](=O)[O-])c12 [HYDROXYTHAXTOMIN C]
- Activity (Abutilon theophrasti [1]): 0%
- Activity (Helianthus annuus [2]): 0%
- Activity (Abutilon theophrasti [3]): 0%
- Activity (Helianthus annuus [4]): 20%
- Activity [5]: Active
- Activity (Abutilon theophrasti [6]): 0%
- Activity [7]: Active
- I50 (Arabidopsis thaliana [8]): <40 ppb
- Activity (Helianthus annuus [9]): 0%
- Activity (Abutilon theophrasti [10]): 0%
- growth inhibition (GI) (Arabidopsis thaliana [11]): Active
- Activity (Helianthus annuus [12]): 100%
- Activity (Helianthus annuus [13]): 95%
- Activity (Helianthus annuus [14]): 80%
- Activity (Abutilon theophrasti [15]): 70%
- growth inhibition (GI) (Arabidopsis thaliana [16]): Active
- Activity (Abutilon theophrasti [17]): 20%
- I50 [18]: <40 ppb

SMILES: CN1C(=O)[C@](O)(Cc2ccccc2O)N(C)C(=O)[C@@H]1Cc1c[nH]c2cccc([N+](=O)[O-])c12 [THAXTOMIN A O-ISOMER]
- Activity (Helianthus annuus [19]): 75%
- Activity (Echinochloa crus-galli [20]): 20%
- Activity (Helianthus annuus [21]): 75%
- Activity [5]: Active
- Activity (Avena fatua [22]): 0%
- Activity (Avena fatua [23]): 0%
- Activity (Echinochloa crus-galli [24]): 0%
- Activity (Avena fatua [25]): 0%
- Activity [7]: Active
- I50 (Arabidopsis thaliana [8]): 100 ppb
- growth inhibition (GI) (Arabidopsis thaliana [11]): Active
- Activity (Ipomoea hederacea [26]): 40%
- Activity (Ipomoea hederacea [27]): 40%
- Activity (Ipomoea hederacea [28]): 0%
- Activity (Helianthus annuus [29]): 10%
- Activity (Avena fatua [30]): 0%
- Activity (Helianthus annuus [31]): 0%
- Activity (Echinochloa crus-galli [32]): 0%
- growth inhibition (GI) (Arabidopsis thaliana [16]): Active
- Activity (Echinochloa crus-galli [33]): 0%
- Activity (Ipomoea hederacea [34]): 10%
- I50 [18]: 90 ppb

SMILES: CN1C(=O)[C@](O)(Cc2ccc(O)cc2)N(C)C(=O)[C@@H]1Cc1c[nH]c2cccc([N+](=O)[O-])c12 [THAXTOMIN A P-ISOMER]
- Activity [5]: Active
- Activity [7]: Active
- I50 (Arabidopsis thaliana [8]): 190 ppb
- growth inhibition (GI) (Arabidopsis thaliana [11]): Active
- growth inhibition (GI) (Arabidopsis thaliana [16]): Active
- I50 [18]: 100 ppb

SMILES: CN1C(=O)[C@](O)(Cc2ccccc2)N(C)C(=O)[C@@H]1Cc1c[nH]c2cccc([N+](=O)[O-])c12 [THAXTOMIN B]
- Activity [5]: Active
- Activity [7]: Active
- I50 (Arabidopsis thaliana [8]): 28 ppb
- growth inhibition (GI) (Arabidopsis thaliana [11]): Active
- growth inhibition (GI) (Arabidopsis thaliana [16]): Active

SMILES: CN1C(=O)[C@H](Cc2ccccc2)NC(=O)[C@@H]1Cc1c[nH]c2cccc([N+](=O)[O-])c12 [THAXTOMIN C]
- Activity (Echinochloa crus-galli [35]): 0%
- Activity (Abutilon theophrasti [1]): 0%
- GR50 (Ipomoea hederacea [36]): <125 g/ha
- Activity (Helianthus annuus [2]): 0%
- Activity (Abutilon theophrasti [3]): 0%
- Activity (Helianthus annuus [19]): 70%
- Activity (Avena fatua [37]): 0%
- Activity (Helianthus annuus [4]): 0%
- Activity [5]: Active
- Activity (Ipomoea hederacea [38]): 70%
- Activity (Abutilon theophrasti [6]): 0%
- Activity (Avena fatua [23]): 0%
- Activity (Echinochloa crus-galli [24]): 20%
- Activity (Avena fatua [25]): 0%
- Activity [7]: Active
- I50 (Arabidopsis thaliana [8]): 50 ppb
- Activity (Helianthus annuus [9]): 0%
- Activity (Abutilon theophrasti [10]): 0%
- growth inhibition (GI) (Arabidopsis thaliana [11]): Active
- Activity (Ipomoea hederacea [27]): 80%
- Activity (Helianthus annuus [12]): 75%
- Activity (Helianthus annuus [13]): 30%
- Activity (Ipomoea hederacea [28]): 80%
- Activity (Helianthus annuus [14]): 0%
- Activity (Helianthus annuus [29]): 30%
- Activity (Abutilon theophrasti [15]): 50%
- Activity (Avena fatua [30]): 0%
- Activity (Helianthus annuus [31]): 30%
- Activity (Echinochloa crus-galli [32]): 40%
- growth inhibition (GI) (Arabidopsis thaliana [16]): Active
- Activity (Echinochloa crus-galli [33]): 0%
- Activity (Helianthus annuus [39]): 30%
- Activity (Abutilon theophrasti [17]): 0%
- Activity (Ipomoea hederacea [34]): 80%
- I50 [18]: 40 ppb
